In US6350585B1, “Reagent for assay of amylase isozyme activity” (priority 1998, dated 2002):
Blank lines part the entries; values can stand above or below the molecule they belong to.

Assays:
P-type amylase = target: T1, P-type amylase (Homo sapiens, UniProt P04746); assay: P-type amylase activity assay of serum with reagent E; assay type: biochemical; details: for P-type amylase activity value / Blank, change in absorbance per minute: composition E; for P-type amylase activity value: potassium thiocyanate 140 mM; for Blank, change in absorbance per minute: distilled water as sample
T1 construct: Serum (1, 2 or 3); from tissue; host or cells: serum
T1 sequence (P04746 16-511): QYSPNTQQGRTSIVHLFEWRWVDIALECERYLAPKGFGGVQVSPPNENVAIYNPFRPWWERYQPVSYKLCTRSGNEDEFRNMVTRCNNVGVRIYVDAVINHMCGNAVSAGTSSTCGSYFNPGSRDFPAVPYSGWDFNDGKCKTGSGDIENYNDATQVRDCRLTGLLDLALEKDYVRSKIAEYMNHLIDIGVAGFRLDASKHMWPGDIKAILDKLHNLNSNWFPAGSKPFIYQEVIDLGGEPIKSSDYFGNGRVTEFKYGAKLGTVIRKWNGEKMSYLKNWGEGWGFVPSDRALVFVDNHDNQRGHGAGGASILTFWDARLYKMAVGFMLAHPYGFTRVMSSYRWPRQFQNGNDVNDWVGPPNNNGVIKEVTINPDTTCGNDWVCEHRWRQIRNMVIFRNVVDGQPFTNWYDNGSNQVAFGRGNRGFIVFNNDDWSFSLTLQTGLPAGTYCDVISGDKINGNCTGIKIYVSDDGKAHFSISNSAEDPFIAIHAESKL
Protocol: Good buffer (pH 6.2) 50 mM
S-type amylase inhibitory antibody 88E8 (manufactured by Roche Diagnostics K.K.) 15 mg/L
S-type amylase inhibitory antibody 66C7 (manufactured by Roche Diagnostics K.K.) 1.25 mg/L
Potassium thiocyanate 140 mM
(§1) Substrate (GalG2CNP (Example) or G3CNP (Comparative Example)) 2.6 mM
(1) Distilled water (blank)
Each of the above-mentioned reagents (0.05 mL) was added to the above reagent E (3 mL) and the mixtures were left standing at 37° C. for 3 minutes. Then, change in absorbance at 405 nm was assayed and change in absorbance per minute was calculated. The obtained change in absorbance was converted to P-type amylase activity value at this composition using the molecular extinction coefficient of CNP.

[1] = target: T2, P-type amylase (Calibzyme P) (Homo sapiens, UniProt P04746); assay: amylase isozyme activity assay with sodium azide as activator, P-type amylase sample; assay type: biochemical; details: for Percent residual enzyme activity: composition C/D
T2 construct: purchased International Reagents Corporation Calibzyme P
T2 sequence (P04746 16-511): T1 sequence (P04746 16-511)
Protocol: S-type amylase inhibitory antibody 88E8 (manufactured by Roche Diagnostics K.K.) 20 mg/L
S-type amylase inhibitory antibody 66C7 (manufactured by Roche Diagnostics K.K.) 5 mg/L
as §1
(2) P-type Amylase (Calibzyme P, Manufactured by International Reagents Corporation)
Each of the above-mentioned samples (0.05 mL) was added to respective reagent C and D (3 mL) and the mixtures were left standing at 37° C. for 3 minutes. Then, change in absorbance at 405 nm was assayed and change in absorbance per minute was calculated.
In the Tables, P is the case where P-type amylase was used as the sample, and S is the case where S-type amylase was used. The relative sensitivity of P and S is based on the change in absorbance of G3CNP as 100, wherein sodium azide was 300 mM.
Percent residual enzyme activity and relative sensitivity were calculated by the following formulas.
Percent residual enzyme activity (%)=(change in absorbance of composition C)/(change in absorbance of composition D)×100
Relative sensitivity (%)=(change in absorbance of composition D)/(change in absorbance of Comparative Example wherein sodium azide was 300 mM)×100

[2] = sodium azide 0 mM, G3CNP at 300 mM = 100
[3] = sodium azide 30 mM, G3CNP at 300 mM = 100
[4] = sodium azide 60 mM, G3CNP at 300 mM = 100
[5] = sodium azide 90 mM, G3CNP at 300 mM = 100
[6] = sodium azide 120 mM, G3CNP at 300 mM = 100
[7] = sodium azide 150 mM, G3CNP at 300 mM = 100
[8] = sodium azide 200 mM, G3CNP at 300 mM = 100
[9] = sodium azide 250 mM, G3CNP at 300 mM = 100
[10] = sodium azide 300 mM, G3CNP at 300 mM = 100

P-type amylase activity value (P-type amylase; Serum 1): 16.8 IU/L
P-type amylase activity value (P-type amylase; Serum 2): 106.3 IU/L
P-type amylase activity value (P-type amylase; Serum 3): 80.9 IU/L
Blank, change in absorbance per minute (P-type amylase): 0.0006 ABS/min
Change in absorbance, Containing Antibody (Composition C) ([1]; sodium azide 0 mM): 9.4 mABS/min
Change in absorbance, Without antibody (Composition D) ([1]; sodium azide 0 mM): 9.4 mABS/min
Relative sensitivity [1, 2]: 20.6%
Percent residual enzyme activity ([1]; sodium azide 0 mM): 100.0%
Change in absorbance, Containing Antibody (Composition C) ([1]; sodium azide 30 mM): 19.8 mABS/min
Change in absorbance, Without antibody (Composition D) ([1]; sodium azide 30 mM): 20.5 mABS/min
Relative sensitivity [1, 3]: 45.0%
Relative sensitivity ([1]; sodium azide 30 mM, G3CNP at 300 mM = 100, listed as Comparative Example 2): about 45%
Percent residual enzyme activity ([1]; sodium azide 30 mM): 96.6%
Change in absorbance, Containing Antibody (Composition C) ([1]; sodium azide 60 mM): 26.3 mABS/min
Change in absorbance, Without antibody (Composition D) ([1]; sodium azide 60 mM): 26.0 mABS/min
Relative sensitivity [1, 4]: 57.0%
Percent residual enzyme activity ([1]; sodium azide 60 mM): 101.2%
Change in absorbance, Containing Antibody (Composition C) ([1]; sodium azide 90 mM): 31.8 mABS/min
Change in absorbance, Without antibody (Composition D) ([1]; sodium azide 90 mM): 32.0 mABS/min
Relative sensitivity [1, 5]: 70.2%
Percent residual enzyme activity ([1]; sodium azide 90 mM): 99.4%
Change in absorbance, Containing Antibody (Composition C) ([1]; sodium azide 120 mM): 35.3 mABS/min
Change in absorbance, Without antibody (Composition D) ([1]; sodium azide 120 mM): 33.7 mABS/min
Relative sensitivity [1, 6]: 73.9%
Percent residual enzyme activity ([1]; sodium azide 120 mM): 104.7%
Change in absorbance, Containing Antibody (Composition C) ([1]; sodium azide 150 mM): 37.5 mABS/min
Change in absorbance, Without antibody (Composition D) ([1]; sodium azide 150 mM): 37.1 mABS/min
Relative sensitivity [1, 7]: 81.4%
Percent residual enzyme activity ([1]; sodium azide 150 mM): 101.1%
Change in absorbance, Containing Antibody (Composition C) ([1]; sodium azide 200 mM): 40.9 mABS/min
Change in absorbance, Without antibody (Composition D) ([1]; sodium azide 200 mM): 41.3 mABS/min
Relative sensitivity [1, 8]: 90.6%
Percent residual enzyme activity ([1]; sodium azide 200 mM): 99.0%
Change in absorbance, Containing Antibody (Composition C) ([1]; sodium azide 250 mM): 43.6 mABS/min
Change in absorbance, Without antibody (Composition D) ([1]; sodium azide 250 mM): 42.8 mABS/min
Relative sensitivity [1, 9]: 93.9%
Percent residual enzyme activity ([1]; sodium azide 250 mM): 101.9%
Change in absorbance, Containing Antibody (Composition C) ([1]; sodium azide 300 mM): 45.4 mABS/min
Change in absorbance, Without antibody (Composition D) ([1]; sodium azide 300 mM): 45.6 mABS/min
Relative sensitivity [1, 10]: 100.0%
Percent residual enzyme activity ([1]; sodium azide 300 mM): 99.6%
SMILES: O=[N+]([O-])c1ccc(O[C@H]2O[C@H](CO)[C@@H](O[C@H]3O[C@H](CO)[C@@H](O[C@H]4O[C@H](CO)[C@@H](O)[C@H](O)[C@H]4O)[C@H](O)[C@H]3O)[C@H](O)[C@H]2O)c(Cl)c1 [Example G3CNP, 2-chloro-4-nitrophenylmaltotrioside, reference compound]

P-type amylase activity value (P-type amylase; Serum 1): 32.3 IU/L
P-type amylase activity value (P-type amylase; Serum 2): 205.0 IU/L
P-type amylase activity value (P-type amylase; Serum 3): 156.8 IU/L
sensitivity (change in absorbance) compared with Comparative Example (P-type amylase; Table 5, serum samples): superior sensitivity
Blank, change in absorbance per minute (P-type amylase): 0.0004 ABS/min
Change in absorbance, Containing Antibody (Composition C) ([1]; sodium azide 0 mM): 26.4 mABS/min
Change in absorbance, Without antibody (Composition D) ([1]; sodium azide 0 mM): 26.3 mABS/min
Relative sensitivity [1, 2]: 57.7%
Percent residual enzyme activity ([1]; sodium azide 0 mM): 100.4%
Change in absorbance, Containing Antibody (Composition C) ([1]; sodium azide 30 mM): 43.6 mABS/min
Change in absorbance, Without antibody (Composition D) ([1]; sodium azide 30 mM): 44.6 mABS/min
Relative sensitivity [1, 3]: 97.8%
Relative sensitivity ([1]; sodium azide 30 mM, G3CNP at 300 mM = 100, listed as Example): about 98%
Percent residual enzyme activity ([1]; sodium azide 30 mM): 97.8%
Change in absorbance, Containing Antibody (Composition C) ([1]; sodium azide 60 mM): 52.5 mABS/min
Change in absorbance, Without antibody (Composition D) ([1]; sodium azide 60 mM): 52.8 mABS/min
Relative sensitivity [1, 4]: 115.8%
Percent residual enzyme activity ([1]; sodium azide 60 mM): 99.4%
Change in absorbance, Containing Antibody (Composition C) ([1]; sodium azide 90 mM): 60.1 mABS/min
Change in absorbance, Without antibody (Composition D) ([1]; sodium azide 90 mM): 59.6 mABS/min
Relative sensitivity [1, 5]: 130.7%
Percent residual enzyme activity ([1]; sodium azide 90 mM): 100.8%
Change in absorbance, Containing Antibody (Composition C) ([1]; sodium azide 120 mM): 64.9 mABS/min
Change in absorbance, Without antibody (Composition D) ([1]; sodium azide 120 mM): 63.4 mABS/min
Relative sensitivity [1, 6]: 139.0%
Percent residual enzyme activity ([1]; sodium azide 120 mM): 102.4%
Change in absorbance, Containing Antibody (Composition C) ([1]; sodium azide 150 mM): 68.2 mABS/min
Change in absorbance, Without antibody (Composition D) ([1]; sodium azide 150 mM): 68.4 mABS/min
Relative sensitivity [1, 7]: 150.0%
Percent residual enzyme activity ([1]; sodium azide 150 mM): 99.7%
Change in absorbance, Containing Antibody (Composition C) ([1]; sodium azide 200 mM): 72.2 mABS/min
Change in absorbance, Without antibody (Composition D) ([1]; sodium azide 200 mM): 70.1 mABS/min
Relative sensitivity [1, 8]: 153.7%
Percent residual enzyme activity ([1]; sodium azide 200 mM): 103.0%
Change in absorbance, Containing Antibody (Composition C) ([1]; sodium azide 250 mM): 74.4 mABS/min
Change in absorbance, Without antibody (Composition D) ([1]; sodium azide 250 mM): 72.4 mABS/min
Relative sensitivity [1, 9]: 158.8%
Percent residual enzyme activity ([1]; sodium azide 250 mM): 102.8%
Change in absorbance, Containing Antibody (Composition C) ([1]; sodium azide 300 mM): 76.8 mABS/min
Change in absorbance, Without antibody (Composition D) ([1]; sodium azide 300 mM): 75.6 mABS/min
Relative sensitivity [1, 10]: 165.8%
Percent residual enzyme activity ([1]; sodium azide 300 mM): 101.6%
SMILES: O=[N+]([O-])c1ccc(O[C@H]2O[C@H](CO)[C@@H](O[C@H]3O[C@H](CO)[C@@H](O[C@@H]4O[C@H](CO)[C@H](O)[C@H](O)[C@H]4O)[C@H](O)[C@H]3O)[C@H](O)[C@H]2O)c(Cl)c1 [GalG2CNP, 2-chloro-4-nitrophenyl 4-O-β-D-galactopyranosylmaltoside]
